One compound from ChEMBL document CHEMBL1158676, “Aurilol, a Cytotoxic Bromotriterpene Isolated from the Sea Hare Dolabella auricularia” (J Nat Prod, 1998) can be followed below.

This test in a line: Cytotoxicity against human HeLaS3 cells. It is filed as functional, cell-based. The conditions noted are these: HeLa S3.

In brackets after ≈: the same amount, converted by molar mass.

As usually defined, the IC50 is the midpoint of a concentration-inhibition curve. High values mean weaker potency in that assay, low ones greater potency in that assay. Compound `CC(C)(O)[C@H](O)CC[C@@](C)(O)[C@@H]1CC[C@](C)([C@@H]2CC[C@@H]([C@@]3(C)CC[C@@H]4OC(C)(C)[C@H](Br)CC[C@@]4(C)O3)O2)O1` [AURILOL] came in with an IC50 of 4.3 µg/mL (≈ 7.1 µM).
